# Laboratory results published in patent US8053553B2, “Targeting host proteinases as a therapeutic strategy against viral and bacterial pathogens” (Socpra Sciences Sante Et Humaines, priority 2007, dated 2011).
# pKi: −log10 of the molar value. Non-standard residues stand in square brackets, D forms with d. Residues, ends and D or L forms follow the SMILES beside them. Sar = CNCC(=O)O
# Target: T1, furin (Homo sapiens, UniProt P09958)
# T1 construct: made in house; host or cells: Drosophila S2 cells (Invitrogen expression system)
# Assay: biochemical
# Conditions: furin, Pyr-RTKR-AMC substrate; alanine scanning mutagenesis of the H5 furin cleavage sequence (Table 2); read-out: Ki
# T1 sequence (P09958 108-794 limits assumed): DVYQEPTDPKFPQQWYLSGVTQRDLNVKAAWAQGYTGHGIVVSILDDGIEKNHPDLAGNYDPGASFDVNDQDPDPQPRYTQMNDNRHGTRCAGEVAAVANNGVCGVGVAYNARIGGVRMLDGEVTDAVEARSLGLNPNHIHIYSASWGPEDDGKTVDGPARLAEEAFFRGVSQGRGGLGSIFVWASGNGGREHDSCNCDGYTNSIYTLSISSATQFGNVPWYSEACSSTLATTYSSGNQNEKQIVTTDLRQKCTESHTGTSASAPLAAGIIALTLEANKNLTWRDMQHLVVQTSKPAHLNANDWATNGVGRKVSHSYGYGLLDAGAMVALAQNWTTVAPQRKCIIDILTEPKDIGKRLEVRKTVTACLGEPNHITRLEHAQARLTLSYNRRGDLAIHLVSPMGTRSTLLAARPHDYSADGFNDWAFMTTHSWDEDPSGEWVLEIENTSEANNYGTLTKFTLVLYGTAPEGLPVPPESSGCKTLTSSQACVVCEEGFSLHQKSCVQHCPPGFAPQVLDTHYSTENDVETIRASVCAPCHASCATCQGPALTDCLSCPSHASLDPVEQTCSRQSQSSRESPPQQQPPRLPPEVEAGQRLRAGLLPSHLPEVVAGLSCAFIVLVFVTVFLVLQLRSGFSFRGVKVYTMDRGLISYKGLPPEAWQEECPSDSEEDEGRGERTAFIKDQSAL
row,SMILES,pKi
1,CC(C)[C@H](NC(=O)[C@H](CCCNC(=N)N)NC(=O)[C@H](CCCCN)NC(=O)[C@H](CCCCN)NC(=O)[C@H](C)NC(=O)[C@H](C)NC(=O)[C@H](C)NC(=O)[C@H](CCC(=O)O)NC(=O)[C@H](CCCNC(=N)N)NC(=O)[C@@H]1CCCN1C(=O)[C@@H](N)[C@@H](C)O)C(N)=O (H-TPREAAAKKRV-NH2),< 7.00
2,CC(C)[C@H](NC(=O)[C@H](CCCNC(=N)N)NC(=O)[C@H](CCCCN)NC(=O)[C@H](CCCCN)NC(=O)[C@H](C)NC(=O)[C@H](C)NC(=O)[C@H](CCCNC(=N)N)NC(=O)[C@H](CCC(=O)O)NC(=O)[C@H](CCCNC(=N)N)NC(=O)[C@@H]1CCCN1C(=O)[C@@H](N)[C@@H](C)O)C(N)=O (H-TPRERAAKKRV-NH2),< 7.00
3,CC(C)[C@H](NC(=O)[C@H](CCCNC(=N)N)NC(=O)[C@H](CCCCN)NC(=O)[C@H](CCCCN)NC(=O)[C@H](CCCNC(=N)N)NC(=O)[C@H](CCCNC(=N)N)NC(=O)[C@H](CCCNC(=N)N)NC(=O)[C@H](CCC(=O)O)NC(=O)[C@H](CCCNC(=N)N)NC(=O)[C@@H]1CCCN1C(=O)[C@H](C)N)C(N)=O (H-APRERRRKKRV-NH2),< 7.00
4,CC(C)[C@H](NC(=O)[C@H](CCCNC(=N)N)NC(=O)[C@H](CCCCN)NC(=O)[C@H](C)NC(=O)[C@H](C)NC(=O)[C@H](CCCNC(=N)N)NC(=O)[C@H](CCCNC(=N)N)NC(=O)[C@H](CCC(=O)O)NC(=O)[C@H](CCCNC(=N)N)NC(=O)[C@@H]1CCCN1C(=O)[C@@H](N)[C@@H](C)O)C(N)=O (H-TPRERRAAKRV-NH2),< 7.00
5,C[C@H](NC(=O)[C@@H]1CCCN1C(=O)[C@@H](N)[C@@H](C)O)C(=O)N[C@@H](CCC(=O)O)C(=O)N[C@@H](CCCNC(=N)N)C(=O)N[C@@H](CCCNC(=N)N)C(=O)N[C@@H](CCCNC(=N)N)C(=O)N[C@@H](CCCCN)C(=O)N[C@@H](CCCCN)C(=O)N[C@@H](CCCNC(=N)N)C(=O)N(C)CC(N)=O (H-TPAERRRKKR[Sar]-NH2),< 7.00
6,C[C@H](NC(=O)[C@H](CCCNC(=N)N)NC(=O)[C@@H]1CCCN1C(=O)[C@@H](N)[C@@H](C)O)C(=O)N[C@@H](CCCNC(=N)N)C(=O)N[C@@H](CCCNC(=N)N)C(=O)N[C@@H](CCCNC(=N)N)C(=O)N[C@@H](CCCCN)C(=O)N[C@@H](CCCCN)C(=O)N[C@@H](CCCNC(=N)N)C(=O)N(C)CC(N)=O,< 7.00
7,CC(C)[C@H](NC(=O)[C@H](CCCNC(=N)N)NC(=O)[C@H](CCCCN)NC(=O)[C@H](CCCCN)NC(=O)[C@H](CCCNC(=N)N)NC(=O)[C@H](CCCNC(=N)N)NC(=O)[C@H](CCCNC(=N)N)NC(=O)[C@H](CCC(=O)O)NC(=O)[C@H](CCCNC(=N)N)NC(=O)[C@H](C)NC(=O)[C@@H](N)[C@@H](C)O)C(N)=O (H-TARERRRKKRV-NH2),< 7.00
8,C[C@H](NC(=O)[C@H](C)NC(=O)[C@H](CCC(=O)O)NC(=O)[C@H](CCCNC(=N)N)NC(=O)[C@@H]1CCCN1C(=O)[C@@H](N)[C@@H](C)O)C(=O)N[C@@H](CCCNC(=N)N)C(=O)N[C@@H](CCCCN)C(=O)N[C@@H](CCCCN)C(=O)N[C@@H](CCCNC(=N)N)C(=O)NCC(N)=O (H-TPREAARKKRG-NH2),< 7.00
9,C[C@H](N)C(=O)N[C@@H](C)C(=O)N[C@@H](CCCNC(=N)N)C(=O)N[C@@H](CCC(=O)O)C(=O)N[C@@H](CCCNC(=N)N)C(=O)N[C@@H](CCCNC(=N)N)C(=O)N[C@@H](CCCNC(=N)N)C(=O)N[C@@H](CCCCN)C(=O)N[C@@H](CCCCN)C(=O)N[C@@H](CCCNC(=N)N)C(=O)NCC(N)=O (H-AARERRRKKRG-NH2),< 7.00
10,C[C@H](NC(=O)[C@H](C)NC(=O)[C@H](CCC(=O)O)NC(=O)[C@H](CCCNC(=N)N)NC(=O)[C@@H]1CCCN1C(=O)[C@@H](N)[C@@H](C)O)C(=O)N[C@@H](C)C(=O)N[C@@H](CCCCN)C(=O)N[C@@H](CCCCN)C(=O)N[C@@H](CCCNC(=N)N)C(N)=O (H-TPREAAAKKR-NH2),< 7.00
11,C[C@H](NC(=O)[C@H](C)NC(=O)[C@H](CCC(=O)O)NC(=O)[C@H](CCCNC(=N)N)NC(=O)[C@@H]1CCCN1C(=O)[C@@H](N)[C@@H](C)O)C(=O)N[C@@H](CCCNC(=N)N)C(=O)N[C@@H](CCCCN)C(=O)N[C@@H](CCCCN)C(=O)N[C@@H](CCCNC(=N)N)C(N)=O (H-TPREAARKKR-NH2),< 7.00
12,C[C@H](NC(=O)[C@H](CCCCN)NC(=O)[C@H](CCCCN)NC(=O)[C@H](CCCNC(=N)N)NC(=O)[C@H](CCCNC(=N)N)NC(=O)[C@H](CCCNC(=N)N)NC(=O)[C@H](CCC(=O)O)NC(=O)[C@H](CCCNC(=N)N)NC(=O)[C@@H]1CCCN1C(=O)[C@@H](N)[C@@H](C)O)C(N)=O (H-TPRERRRKKA-NH2),< 7.00
13,C[C@H](NC(=O)[C@H](C)NC(=O)[C@@H]1CCCN1C(=O)[C@@H](N)[C@@H](C)O)C(=O)N[C@@H](CCCNC(=N)N)C(=O)N[C@@H](CCCNC(=N)N)C(=O)N[C@@H](CCCNC(=N)N)C(=O)N[C@@H](CCCCN)C(=O)N[C@@H](CCCCN)C(=O)N[C@@H](CCCNC(=N)N)C(=O)NCC(N)=O (H-TPAARRRKKRG-NH2),< 7.00
14,CC(C)[C@H](NC(=O)[C@H](CCCNC(=N)N)NC(=O)[C@H](CCCCN)NC(=O)[C@H](C)NC(=O)[C@H](CCCNC(=N)N)NC(=O)[C@H](CCCNC(=N)N)NC(=O)[C@H](CCCNC(=N)N)NC(=O)[C@H](CCC(=O)O)NC(=O)[C@H](CCCNC(=N)N)NC(=O)[C@@H]1CCCN1C(=O)[C@@H](N)[C@@H](C)O)C(N)=O (H-TPRERRRAKRV-NH2),< 7.00
15,C[C@H](NC(=O)[C@H](CCCNC(=N)N)NC(=O)[C@@H]1CCCN1C(=O)[C@@H](N)[C@@H](C)O)C(=O)N[C@@H](CCCNC(=N)N)C(=O)N[C@@H](CCCNC(=N)N)C(=O)N[C@@H](CCCNC(=N)N)C(=O)N[C@@H](CCCCN)C(=O)N[C@@H](CCCCN)C(=O)N[C@@H](CCCNC(=N)N)C(N)=O,6.86

# Same assay, conditions: furin, Pyr-RTKR-AMC substrate; optimization of the inhibitory peptides (Table 3); read-out: Ki
row,SMILES,pKi
1,C[C@@H](O)[C@H](N)C(=O)N1CCC[C@H]1C(=O)N[C@@H](CCC(N)=O)C(=O)N[C@@H](CCCNC(=N)N)C(=O)N[C@@H](Cc1ccccc1)C(=O)N[C@@H](CCCNC(=N)N)C(=O)N[C@@H](CCCNC(=N)N)C(=O)N[C@@H](CCCNC(=N)N)C(=O)N[C@@H](CCCCN)C(=O)N[C@@H](CCCCN)C(=O)N[C@@H](CCCNC(=N)N)C(=O)NCC(N)=O (H-TPQRFRRRKKRG-NH2),< 7.00
2,C[C@@H](O)[C@H](N)C(=O)N1CCC[C@H]1C(=O)N[C@@H](CCC(N)=O)C(=O)N[C@@H](CCCNC(=N)N)C(=O)N[C@@H](CO)C(=O)N[C@@H](CCCNC(=N)N)C(=O)N[C@@H](CCCNC(=N)N)C(=O)N[C@@H](CCCNC(=N)N)C(=O)N[C@@H](CCCCN)C(=O)N[C@@H](CCCCN)C(=O)N[C@@H](CCCNC(=N)N)C(=O)NCC(N)=O (H-TPQRSRRRKKRG-NH2),< 7.00
3,CC[C@H](NC(=O)[C@H](CCCNC(=N)N)NC(=O)[C@H](CCC(N)=O)NC(=O)[C@@H]1CCCN1C(=O)[C@@H](N)[C@@H](C)O)C(=O)N[C@@H](CCCNC(=N)N)C(=O)N[C@@H](CCCNC(=N)N)C(=O)N[C@@H](CCCNC(=N)N)C(=O)N[C@@H](CCCCN)C(=O)N[C@@H](CCCCN)C(=O)N[C@@H](CCCNC(=N)N)C(=O)NCC(N)=O [TPQR8RRRKKRG],< 7.00
4,CSC[C@H](NC(=O)[C@H](CCCNC(=N)N)NC(=O)[C@H](CCCCN)NC(=O)[C@H](CCCCN)NC(=O)[C@H](CCCNC(=N)N)NC(=O)[C@H](CCCNC(=N)N)NC(=O)[C@H](CCCNC(=N)N)NC(=O)[C@H](C)NC(=O)[C@H](CCCNC(=N)N)NC(=O)[C@H](CCC(N)=O)NC(=O)[C@@H]1CCCN1C(=O)[C@@H](N)[C@@H](C)O)C(N)=O (H-TPQRARRRKKRC(Me)-NH2),7.03
5,C[C@@H](O)[C@H](N)C(=O)N1CCC[C@H]1C(=O)N[C@@H](CCC(N)=O)C(=O)N[C@@H](CCCNC(=N)N)C(=O)N[C@@H](Cc1ccc(O)cc1)C(=O)N[C@@H](CCCNC(=N)N)C(=O)N[C@@H](CCCNC(=N)N)C(=O)N[C@@H](CCCNC(=N)N)C(=O)N[C@@H](CCCCN)C(=O)N[C@@H](CCCCN)C(=O)N[C@@H](CCCNC(=N)N)C(=O)NCC(N)=O (H-TPQRYRRRKKRG-NH2),< 7.00
6,C[C@@H](O)[C@H](N)C(=O)N1CCC[C@H]1C(=O)N[C@@H](CCC(N)=O)C(=O)N[C@@H](CCCNC(=N)N)C(=O)N[C@H](CCCCN)C(=O)N[C@@H](CCCNC(=N)N)C(=O)N[C@@H](CCCNC(=N)N)C(=O)N[C@@H](CCCNC(=N)N)C(=O)N[C@@H](CCCCN)C(=O)N[C@@H](CCCCN)C(=O)N[C@@H](CCCNC(=N)N)C(=O)NCC(N)=O [TPQRkRRRKKRG],< 7.00
7,C[C@H](NC(=O)[C@H](CCCNC(=N)N)NC(=O)[C@H](CCC(N)=O)NC(=O)[C@@H]1CCCN1C(=O)[C@@H](N)[C@@H](C)O)C(=O)N[C@@H](CCCNC(=N)N)C(=O)N[C@@H](CCCNC(=N)N)C(=O)N[C@@H](CCCNC(=N)N)C(=O)N[C@@H](CCCCN)C(=O)N[C@@H](CCCCN)C(=O)N[C@@H](CCCNC(=N)N)C(=O)N1CCC[C@H]1C(N)=O (H-TPQRARRRKKRP-NH2),< 7.00
8,C[C@H](NC(=O)[C@H](CCCNC(=N)N)NC(=O)[C@H](CCC(N)=O)NC(=O)[C@@H]1CCCN1C(=O)[C@@H](N)[C@@H](C)O)C(=O)N[C@@H](CCCNC(=N)N)C(=O)N[C@@H](CCCNC(=N)N)C(=O)N[C@@H](CCCNC(=N)N)C(=O)N[C@@H](CCCCN)C(=O)N[C@@H](CCCCN)C(=O)N[C@H](CCCNC(=N)N)C(=O)NCC(N)=O,< 7.00
9,C[C@H](NC(=O)[C@H](CCCNC(=N)N)NC(=O)[C@H](CCC(N)=O)NC(=O)[C@@H]1CCCN1C(=O)[C@@H](N)[C@@H](C)O)C(=O)N[C@@H](CCCNC(=N)N)C(=O)N[C@@H](CCCNC(=N)N)C(=O)N[C@@H](CCCNC(=N)N)C(=O)N[C@@H](CCCCN)C(=O)N[C@@H](CCCCN)C(=O)N[C@@H](CCCNC(=N)N)C(=O)N[C@@H](Cc1ccc(O)cc1)C(N)=O (H-TPQRARRRKKRY-NH2),7.33
10,C[C@H](NC(=O)[C@H](CCCNC(=N)N)NC(=O)[C@H](CCC(N)=O)NC(=O)[C@@H]1CCCN1C(=O)[C@@H](N)[C@@H](C)O)C(=O)N[C@@H](CCCNC(=N)N)C(=O)N[C@@H](CCCNC(=N)N)C(=O)N[C@@H](CCCNC(=N)N)C(=O)N[C@@H](CCCCN)C(=O)N[C@@H](CCCCN)C(=O)N[C@@H](CCCNC(=N)N)C(=O)N[C@@H](CO)C(N)=O (H-TPQRARRRKKRS-NH2),< 7.00
